Laboratory results taken from article PMC5512571 (Cancer cell, 2017).

Columns and labels:
Assay in all cases: in vitro kinase panel profiling
Format in all cases: biochemical
NUAK1 = molecular target: T1, NUAK1 (Homo sapiens, UniProt O60285)
T1 sequence (O60285 1-661): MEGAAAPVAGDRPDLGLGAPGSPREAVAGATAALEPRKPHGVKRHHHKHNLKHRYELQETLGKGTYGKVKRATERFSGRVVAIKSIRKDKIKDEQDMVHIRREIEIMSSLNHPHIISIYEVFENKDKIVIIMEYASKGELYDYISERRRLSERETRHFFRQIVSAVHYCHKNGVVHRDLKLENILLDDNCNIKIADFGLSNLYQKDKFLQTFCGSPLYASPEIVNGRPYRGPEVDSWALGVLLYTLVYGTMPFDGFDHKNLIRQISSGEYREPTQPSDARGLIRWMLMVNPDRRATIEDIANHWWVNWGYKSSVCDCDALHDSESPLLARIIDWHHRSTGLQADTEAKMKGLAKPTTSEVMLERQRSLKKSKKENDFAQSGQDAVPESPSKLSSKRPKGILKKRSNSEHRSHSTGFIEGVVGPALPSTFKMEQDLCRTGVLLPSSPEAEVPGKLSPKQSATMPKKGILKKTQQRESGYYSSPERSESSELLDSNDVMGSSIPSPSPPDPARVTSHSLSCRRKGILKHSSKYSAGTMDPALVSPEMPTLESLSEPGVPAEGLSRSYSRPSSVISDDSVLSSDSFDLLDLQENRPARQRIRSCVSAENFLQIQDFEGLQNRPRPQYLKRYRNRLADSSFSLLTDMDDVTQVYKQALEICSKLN

JAK1 = JAK1 (Homo sapiens, UniProt P23458)
FLT3 = FLT3 (Homo sapiens, UniProt P36888)
JAK3 = molecular target: T2, JAK3 (Homo sapiens, UniProt P52333)
T2 sequence (P52333 1-1124): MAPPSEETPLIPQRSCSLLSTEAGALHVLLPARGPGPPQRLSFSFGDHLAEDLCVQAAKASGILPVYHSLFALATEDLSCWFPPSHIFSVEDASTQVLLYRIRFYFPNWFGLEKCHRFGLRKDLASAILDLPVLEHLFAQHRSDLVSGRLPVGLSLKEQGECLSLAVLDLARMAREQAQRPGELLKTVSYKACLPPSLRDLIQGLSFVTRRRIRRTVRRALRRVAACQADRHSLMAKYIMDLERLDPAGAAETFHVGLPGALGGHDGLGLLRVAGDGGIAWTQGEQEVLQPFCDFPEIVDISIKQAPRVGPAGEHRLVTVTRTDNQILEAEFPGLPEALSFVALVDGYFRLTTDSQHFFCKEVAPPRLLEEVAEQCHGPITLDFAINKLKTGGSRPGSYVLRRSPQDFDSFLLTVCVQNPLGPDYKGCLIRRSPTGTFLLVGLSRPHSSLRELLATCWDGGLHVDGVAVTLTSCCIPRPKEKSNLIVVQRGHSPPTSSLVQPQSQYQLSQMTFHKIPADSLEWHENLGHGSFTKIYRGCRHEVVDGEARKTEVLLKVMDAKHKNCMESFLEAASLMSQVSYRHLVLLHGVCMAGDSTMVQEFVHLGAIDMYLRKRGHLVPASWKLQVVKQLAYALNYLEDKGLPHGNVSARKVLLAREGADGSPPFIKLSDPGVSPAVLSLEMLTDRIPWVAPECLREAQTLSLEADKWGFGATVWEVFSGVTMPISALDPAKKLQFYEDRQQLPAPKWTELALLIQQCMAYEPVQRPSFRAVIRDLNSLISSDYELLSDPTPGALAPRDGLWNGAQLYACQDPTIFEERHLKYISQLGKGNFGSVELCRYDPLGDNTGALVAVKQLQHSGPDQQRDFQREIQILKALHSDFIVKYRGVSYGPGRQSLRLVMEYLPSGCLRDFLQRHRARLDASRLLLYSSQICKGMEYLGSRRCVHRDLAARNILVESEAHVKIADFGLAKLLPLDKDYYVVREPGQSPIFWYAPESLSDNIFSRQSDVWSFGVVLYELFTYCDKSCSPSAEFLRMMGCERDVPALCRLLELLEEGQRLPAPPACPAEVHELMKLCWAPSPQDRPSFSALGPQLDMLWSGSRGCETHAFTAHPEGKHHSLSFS

JAK2 = JAK2 (Homo sapiens, UniProt O60674)
NUAK2 = molecular target: T3, NUAK2 (Homo sapiens, UniProt Q9H093)
T3 sequence (Q9H093 1-628): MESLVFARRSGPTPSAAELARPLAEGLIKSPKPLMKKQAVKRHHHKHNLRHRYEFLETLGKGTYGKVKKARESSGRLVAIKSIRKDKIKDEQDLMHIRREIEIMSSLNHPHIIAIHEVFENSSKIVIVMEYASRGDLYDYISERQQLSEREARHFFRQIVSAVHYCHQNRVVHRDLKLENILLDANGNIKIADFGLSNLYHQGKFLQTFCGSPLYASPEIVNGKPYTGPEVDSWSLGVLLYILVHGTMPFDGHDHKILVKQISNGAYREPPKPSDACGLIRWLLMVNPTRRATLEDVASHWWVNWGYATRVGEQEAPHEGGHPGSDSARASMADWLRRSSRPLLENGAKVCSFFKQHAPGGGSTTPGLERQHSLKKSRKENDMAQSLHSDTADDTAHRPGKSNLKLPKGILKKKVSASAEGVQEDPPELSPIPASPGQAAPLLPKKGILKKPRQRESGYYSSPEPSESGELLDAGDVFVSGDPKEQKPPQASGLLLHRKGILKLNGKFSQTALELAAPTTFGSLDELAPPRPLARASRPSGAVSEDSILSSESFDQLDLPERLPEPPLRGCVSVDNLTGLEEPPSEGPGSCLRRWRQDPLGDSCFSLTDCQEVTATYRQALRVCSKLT

LRRK2 = LRRK2 (Homo sapiens, UniProt Q5S007)
TNK1 = molecular target: T4, TNK1 (Homo sapiens, UniProt Q13470)
T4 sequence (Q13470 1-666): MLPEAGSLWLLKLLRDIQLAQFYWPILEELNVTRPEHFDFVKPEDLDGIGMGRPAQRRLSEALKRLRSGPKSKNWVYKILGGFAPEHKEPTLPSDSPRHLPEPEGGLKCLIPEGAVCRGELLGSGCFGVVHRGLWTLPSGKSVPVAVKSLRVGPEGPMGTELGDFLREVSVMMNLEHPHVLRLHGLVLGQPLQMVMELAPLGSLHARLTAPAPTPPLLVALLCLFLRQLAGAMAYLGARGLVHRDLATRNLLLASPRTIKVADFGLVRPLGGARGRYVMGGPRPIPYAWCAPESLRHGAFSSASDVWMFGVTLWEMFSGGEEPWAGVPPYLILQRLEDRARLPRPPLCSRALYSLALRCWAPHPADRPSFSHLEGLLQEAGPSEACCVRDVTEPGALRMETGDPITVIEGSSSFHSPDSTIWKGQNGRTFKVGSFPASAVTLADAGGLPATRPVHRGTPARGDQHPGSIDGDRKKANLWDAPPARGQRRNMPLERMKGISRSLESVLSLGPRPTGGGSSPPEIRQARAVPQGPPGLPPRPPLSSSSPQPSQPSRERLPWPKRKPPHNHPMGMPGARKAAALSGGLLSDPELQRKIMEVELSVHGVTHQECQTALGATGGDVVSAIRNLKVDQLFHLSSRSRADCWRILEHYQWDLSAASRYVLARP

TYK2 = TYK2 (Homo sapiens, UniProt P29597)

Measured: % inhibition at 250 nM

TYK2, sequence (P29597 whole entry): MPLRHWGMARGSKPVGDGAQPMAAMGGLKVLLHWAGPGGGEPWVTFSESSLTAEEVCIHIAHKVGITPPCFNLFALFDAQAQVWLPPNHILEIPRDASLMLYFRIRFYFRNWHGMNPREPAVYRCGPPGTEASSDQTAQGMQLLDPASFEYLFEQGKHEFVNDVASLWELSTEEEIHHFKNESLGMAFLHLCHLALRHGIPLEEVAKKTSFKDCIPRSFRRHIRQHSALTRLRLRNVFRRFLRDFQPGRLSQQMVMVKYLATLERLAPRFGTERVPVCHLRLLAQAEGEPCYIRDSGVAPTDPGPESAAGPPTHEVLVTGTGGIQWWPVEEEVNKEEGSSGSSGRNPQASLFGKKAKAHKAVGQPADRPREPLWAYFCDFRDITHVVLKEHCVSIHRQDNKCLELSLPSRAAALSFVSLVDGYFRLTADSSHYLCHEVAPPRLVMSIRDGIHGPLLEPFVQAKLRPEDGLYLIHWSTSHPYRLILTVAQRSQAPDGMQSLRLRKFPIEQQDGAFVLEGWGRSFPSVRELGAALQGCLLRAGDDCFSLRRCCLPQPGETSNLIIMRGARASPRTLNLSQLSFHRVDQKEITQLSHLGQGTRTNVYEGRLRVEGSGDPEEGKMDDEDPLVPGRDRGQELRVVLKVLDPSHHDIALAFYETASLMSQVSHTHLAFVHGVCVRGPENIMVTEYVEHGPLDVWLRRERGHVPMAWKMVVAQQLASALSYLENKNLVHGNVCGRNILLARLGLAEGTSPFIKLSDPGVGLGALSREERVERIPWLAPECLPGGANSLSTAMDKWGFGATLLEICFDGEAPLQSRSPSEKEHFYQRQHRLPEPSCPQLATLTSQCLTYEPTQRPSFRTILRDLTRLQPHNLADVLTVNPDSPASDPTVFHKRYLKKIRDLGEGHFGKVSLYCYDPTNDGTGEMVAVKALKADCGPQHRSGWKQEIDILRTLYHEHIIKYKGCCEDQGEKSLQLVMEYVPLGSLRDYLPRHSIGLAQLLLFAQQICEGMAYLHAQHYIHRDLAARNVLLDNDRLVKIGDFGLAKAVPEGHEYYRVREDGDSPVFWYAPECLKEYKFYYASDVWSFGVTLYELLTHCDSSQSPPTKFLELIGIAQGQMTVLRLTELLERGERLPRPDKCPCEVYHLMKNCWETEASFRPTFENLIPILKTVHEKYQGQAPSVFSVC
JAK2, sequence (O60674 whole entry): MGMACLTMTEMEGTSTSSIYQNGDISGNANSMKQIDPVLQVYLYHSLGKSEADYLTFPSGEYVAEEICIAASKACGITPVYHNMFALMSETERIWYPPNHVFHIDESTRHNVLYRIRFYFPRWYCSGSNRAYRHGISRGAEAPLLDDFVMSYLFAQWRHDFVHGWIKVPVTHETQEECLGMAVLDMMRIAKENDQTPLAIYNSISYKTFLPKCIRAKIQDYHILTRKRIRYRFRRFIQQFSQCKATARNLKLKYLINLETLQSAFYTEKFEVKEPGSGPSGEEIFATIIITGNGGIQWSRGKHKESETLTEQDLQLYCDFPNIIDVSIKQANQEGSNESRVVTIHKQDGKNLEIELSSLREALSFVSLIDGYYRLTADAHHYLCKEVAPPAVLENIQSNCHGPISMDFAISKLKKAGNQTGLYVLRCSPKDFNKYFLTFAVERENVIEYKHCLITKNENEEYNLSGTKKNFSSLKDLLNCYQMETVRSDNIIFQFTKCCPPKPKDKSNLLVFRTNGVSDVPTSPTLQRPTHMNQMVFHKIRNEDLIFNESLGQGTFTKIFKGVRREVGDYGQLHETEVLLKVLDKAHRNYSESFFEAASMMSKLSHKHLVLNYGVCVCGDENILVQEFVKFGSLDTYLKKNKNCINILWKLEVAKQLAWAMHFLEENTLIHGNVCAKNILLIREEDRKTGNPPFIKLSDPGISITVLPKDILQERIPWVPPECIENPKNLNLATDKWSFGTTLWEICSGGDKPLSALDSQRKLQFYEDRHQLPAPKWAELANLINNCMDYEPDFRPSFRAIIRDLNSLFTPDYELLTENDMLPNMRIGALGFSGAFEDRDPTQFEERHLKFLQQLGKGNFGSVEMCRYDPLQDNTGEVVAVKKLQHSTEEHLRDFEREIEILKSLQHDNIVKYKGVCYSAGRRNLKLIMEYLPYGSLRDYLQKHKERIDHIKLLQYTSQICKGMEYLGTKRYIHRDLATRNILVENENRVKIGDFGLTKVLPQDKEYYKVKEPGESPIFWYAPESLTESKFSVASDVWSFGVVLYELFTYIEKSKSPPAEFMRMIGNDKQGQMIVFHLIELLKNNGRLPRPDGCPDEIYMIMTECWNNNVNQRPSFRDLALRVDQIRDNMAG
FLT3, sequence (P36888 27-993): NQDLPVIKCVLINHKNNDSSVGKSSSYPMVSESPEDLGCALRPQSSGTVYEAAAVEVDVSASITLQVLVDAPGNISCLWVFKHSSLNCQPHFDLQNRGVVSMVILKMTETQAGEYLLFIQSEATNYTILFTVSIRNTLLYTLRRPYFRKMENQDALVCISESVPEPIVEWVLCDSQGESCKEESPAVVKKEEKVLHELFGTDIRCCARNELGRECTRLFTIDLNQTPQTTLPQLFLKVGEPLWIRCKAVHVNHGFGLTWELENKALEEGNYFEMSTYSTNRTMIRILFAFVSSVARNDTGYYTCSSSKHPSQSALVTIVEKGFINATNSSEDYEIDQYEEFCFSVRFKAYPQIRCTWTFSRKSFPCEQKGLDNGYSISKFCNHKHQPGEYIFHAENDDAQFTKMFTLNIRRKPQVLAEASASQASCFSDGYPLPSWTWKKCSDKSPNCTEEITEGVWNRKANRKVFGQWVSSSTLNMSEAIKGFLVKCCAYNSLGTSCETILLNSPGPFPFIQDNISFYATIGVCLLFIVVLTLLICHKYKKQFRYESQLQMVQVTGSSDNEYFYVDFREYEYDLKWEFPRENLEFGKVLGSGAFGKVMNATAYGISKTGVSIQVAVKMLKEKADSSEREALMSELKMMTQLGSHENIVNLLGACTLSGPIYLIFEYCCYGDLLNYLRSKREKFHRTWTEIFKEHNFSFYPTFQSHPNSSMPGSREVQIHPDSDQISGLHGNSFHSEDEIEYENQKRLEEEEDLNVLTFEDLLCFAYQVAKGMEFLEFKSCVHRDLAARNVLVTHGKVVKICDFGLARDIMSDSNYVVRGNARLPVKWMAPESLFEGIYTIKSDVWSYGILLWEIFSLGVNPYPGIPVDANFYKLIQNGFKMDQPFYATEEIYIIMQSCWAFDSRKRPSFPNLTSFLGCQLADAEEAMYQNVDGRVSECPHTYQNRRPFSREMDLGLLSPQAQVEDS
JAK1, sequence (P23458 whole entry): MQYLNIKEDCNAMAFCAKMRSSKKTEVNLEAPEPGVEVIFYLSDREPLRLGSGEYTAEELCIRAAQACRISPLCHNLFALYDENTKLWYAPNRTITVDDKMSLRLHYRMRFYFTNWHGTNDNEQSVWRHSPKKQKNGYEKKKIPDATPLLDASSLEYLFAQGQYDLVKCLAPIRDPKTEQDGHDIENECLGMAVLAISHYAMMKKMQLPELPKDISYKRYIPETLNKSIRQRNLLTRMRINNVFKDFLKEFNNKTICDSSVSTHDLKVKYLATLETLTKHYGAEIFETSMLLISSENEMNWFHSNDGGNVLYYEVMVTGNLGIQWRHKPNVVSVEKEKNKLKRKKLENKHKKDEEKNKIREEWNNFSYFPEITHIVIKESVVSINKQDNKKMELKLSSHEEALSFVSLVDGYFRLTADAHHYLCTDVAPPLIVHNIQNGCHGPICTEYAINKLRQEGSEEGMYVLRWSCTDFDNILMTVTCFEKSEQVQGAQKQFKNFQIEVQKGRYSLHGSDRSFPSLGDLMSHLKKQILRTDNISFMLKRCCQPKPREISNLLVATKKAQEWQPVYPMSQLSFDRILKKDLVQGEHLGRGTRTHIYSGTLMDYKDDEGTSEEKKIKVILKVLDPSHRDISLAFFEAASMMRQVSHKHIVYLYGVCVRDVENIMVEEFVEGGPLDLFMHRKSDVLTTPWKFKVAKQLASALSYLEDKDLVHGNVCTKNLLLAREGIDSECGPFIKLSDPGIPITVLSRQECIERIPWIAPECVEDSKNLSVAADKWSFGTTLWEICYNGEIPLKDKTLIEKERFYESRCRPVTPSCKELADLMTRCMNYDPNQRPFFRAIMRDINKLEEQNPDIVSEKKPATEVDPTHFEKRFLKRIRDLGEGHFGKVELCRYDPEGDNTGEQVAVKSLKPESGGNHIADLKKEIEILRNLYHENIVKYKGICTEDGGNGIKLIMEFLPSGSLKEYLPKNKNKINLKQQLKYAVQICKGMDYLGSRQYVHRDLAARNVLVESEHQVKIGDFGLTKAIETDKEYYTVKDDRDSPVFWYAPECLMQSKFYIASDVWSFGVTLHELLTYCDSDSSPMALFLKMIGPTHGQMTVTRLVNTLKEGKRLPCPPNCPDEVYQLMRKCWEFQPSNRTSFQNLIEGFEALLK

CN1CCN(c2ccc(Nc3ncc(Cl)c(NC[C@H]4CCCO4)n3)cc2)CC1 [(R)-9bMS]
> 90: all assays above
